# In PubChem BioAssay AID1963831 (Molecular Pharmacology Branch, DTP, NCI, 2024):
# “And” between values parts separate entries of the source, which are not always exact repeats. Identical values can stand only once.
# Test system: 889142-216-R-J1-PDC complex spheroid viability
# Assay: Anticancer human tumor 889142-216-R-J1-PDC patient-derived bladder carcinoma cell line growth inhibition [POLQ]
# Conditions: for viability, T/C: stronger effect = lower value
# Protocol: Multicellular complex tumor spheroid response to Polymerase (POL) inhibitors (novobiocin, ART-558, RP6685) in combination with a variety of drugs and investigational agents in selected tumor cell lines
# The POL inhibitors (novobiocin, ART-558, and RP6685) were evaluated both individually and in combination with standard of care and investigational anticancer small molecules within a complex spheroid model of solid tumors. . Complex spheroids include a stromal component modeled by human endothelial cells (HUVEC) and fibroblasts modeled by human mesenchymal stem cells (MSCs). The concentration ranges selected for each drug and investigational agent were based upon clinically achievable concentrations if the clinical Cmax of the agent was known.
# Compounds. The drugs and investigational agents: novobiocin (NSC847541), ART-558 (NSC835418), RP-6685 (NSC848927), peposertib (NSC802822), ceralasertib (NSC780249), elimusertib (NSC800525), camonsertib (NSC841442), AZD-1390 (NSC803789), olaparib (NSC753686), talazoparib (NSC767125), rucaparib (NSC756644), sotorasib (NSC818433), MRTX-1133 (NSC836407), SN-38 (NSC673596), topotecan (NSC609699), epotoside (NSC141540), doxorubicin (NSC123127), gemcitabine (NSC613327), 5-fluorouracil (NSC19893), paclitaxel (NSC125973), vemurafenib (NSC761431), MSA-2 (NSC828583), SN-011 (NSC837082), adavosertib (NSC754352), prexasertib (NSC758257), carboplatin (NSC241240) and oxaliplatin (NSC266046), were obtained from the National Cancer Institute (NCI) Developmental Therapeutics Program Chemical Repository (21). The FDA-approved anticancer drug set is available from the Developmental Therapeutics Program at https://dtp.cancer.gov/organization/dscb/obtaining/. […] The stock solutions were prepared in dimethyl sulfoxide (DMSO, Sigma-Aldrich, St. Louis, MO, cat. D2650), except for the platinum compounds which were prepared in saline (Quality Biological, Gaithersburg, MD, cat. 114-055-101), at 800-fold the tested concentration and stored at -70 degrees C prior to their use. All drugs and investigational agents were tested over a range starting from a high concentration at or near the clinical Cmax and decreasing in half-log increments. If the clinical Cmax for an agent had not been determined, the highest concentration tested was 10 microM, except for SN-38, which was tested at a high concentration of 1 microM.
# Cell Culture. All cells were maintained in an incubator at 37 degrees C and 5% CO2 with 95% humidity. The PDC lines were cultured according to standard operating procedures established by the NCI PDMR (https://pdmr.cancer.gov). Table 3 of the manuscript, lists the cell lines along with the number of the three cell types plated to form the mct-spheroids and media for tumor cell growth. After thawing, all PDC lines, except 997537-175-T-J1-PDC and 415267-285-R-J2-PDC, were cultured in Matrigel-coated flasks prepared with a working solution of 1X Ham's F-12 nutrient mix, without supplementation (Thermo Fisher Scientific, cat. 11765054), 100 U/mL penicillin-streptomycin (Thermo Fisher Scientific, cat. 15140122), and 2.5% Matrigel (Corning Inc., Corning, NY, cat. 354248) for the first three passages. The two PDC lines 997537-175-T-J1-PDC and 415267-285-R-J2-PDC were cultured on uncoated flasks. The 857933-349-R-J2-PDC line was cultured in 6C/Colon 1B media containing advanced DMEM/F-12 (Thermo Fisher Scientific, cat. 12634028), 10 mM HEPES (Thermo Fisher Scientific, cat. 15630080), 1X GlutaMAX supplement (Thermo Fisher Scientific, cat. 35050061), 0.1 mg/mL primocin (InvivoGen, San Diego, CA, cat. ant-pm-2), 10% defined fetal bovine serum, heat inactivated (HyClone Laboratories Inc., Logan, UT, cat. SH30070.03HI), 50% L-WRN conditioned media (ATCC, cat. CRL-3276), 1.25 mM N-Acetyl-L-cysteine (Sigma-Aldrich, cat. A9165), 10 mM nicotinamide (Sigma-Aldrich, cat. N0636), 1X B-27 supplement (Thermo Fisher Scientific, cat. 17504044), 1X N-2 supplement (Thermo Fisher Scientific, cat. […]
# [1] = curve of first compound, second compound 0.0316 µM
# [2] = curve of first compound, second compound 0.1 µM
# [3] = curve of first compound, second compound 0.316 µM
# [4] = curve of first compound, second compound 1 µM
# [5] = curve of first compound, second compound 3.16 µM
# [6] = curve of first compound, second compound 10 µM
# [7] = second compound 0.0316 µM, first compound 0.0316 µM
# [8] = second compound 0.0316 µM, first compound 0.1 µM
# [9] = second compound 0.1 µM, first compound 0.0316 µM
# [10] = second compound 0.1 µM, first compound 0.1 µM
# [11] = second compound 0.316 µM, first compound 0.0316 µM
# [12] = second compound 0.316 µM, first compound 0.1 µM
# [13] = second compound 1 µM, first compound 0.0316 µM
# [14] = second compound 1 µM, first compound 0.1 µM
# [15] = second compound 3.16 µM, first compound 0.0316 µM
# [16] = second compound 3.16 µM, first compound 0.1 µM
# [17] = second compound 10 µM, first compound 0.0316 µM
# [18] = second compound 10 µM, first compound 0.1 µM
# 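Further: spheroids exposed to compounds for seven days.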
# 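Wherever viability, T/C is given: 100% = DMSO vehicle control viability.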
structure (smiles),measurement,setting,value
CCc1cc2c(N3CCc4c(cc(Cn5ccnc5)cc4-c4cn(C)nc4C(F)(F)F)C3=O)cc(C)nc2c(OC)n1 + COC1C(OC(N)=O)C(O)C(Oc2ccc3c(O)c(NC(=O)c4ccc(O)c(CC=C(C)C)c4)c(=O)oc3c2C)OC1(C)C,IC50,[1],> 10 µM
same,IC50,[2],> 10 µM
same,IC50,[3],> 10 µM
same,IC50,[4],> 10 µM
same,IC50,[5],> 10 µM
same,IC50,[6],> 10 µM
same,"viability, T/C",[7],112%
same,"viability, T/C",[8],124%
same,"viability, T/C","second compound 0.0316 µM, first compound 0.316 µM",113%
same,"viability, T/C","second compound 0.0316 µM, first compound 1 µM",97%
same,"viability, T/C","second compound 0.0316 µM, first compound 3.16 µM",79.9%
same,"viability, T/C","second compound 0.0316 µM, first compound 10 µM",68.6%
same,"viability, T/C",[9],130%
same,"viability, T/C",[10],115%
same,"viability, T/C","second compound 0.1 µM, first compound 0.316 µM",101%
same,"viability, T/C","second compound 0.1 µM, first compound 1 µM",101%
same,"viability, T/C","second compound 0.1 µM, first compound 3.16 µM",85.7%
same,"viability, T/C","second compound 0.1 µM, first compound 10 µM",58.2%
same,"viability, T/C",[11],120%
same,"viability, T/C",[12],132%
same,"viability, T/C","second compound 0.316 µM, first compound 0.316 µM",107%
same,"viability, T/C","second compound 0.316 µM, first compound 1 µM",107%
same,"viability, T/C","second compound 0.316 µM, first compound 3.16 µM",92.9%
same,"viability, T/C","second compound 0.316 µM, first compound 10 µM",67.7%
same,"viability, T/C",[13],126%
same,"viability, T/C",[14],123%
same,"viability, T/C","second compound 1 µM, first compound 0.316 µM",131%
same,"viability, T/C","second compound 1 µM, first compound 1 µM",105%
same,"viability, T/C","second compound 1 µM, first compound 3.16 µM",74.4%
same,"viability, T/C","second compound 1 µM, first compound 10 µM",61.9%
same,"viability, T/C",[15],112%
same,"viability, T/C",[16],106%
same,"viability, T/C","second compound 3.16 µM, first compound 0.316 µM",137%
same,"viability, T/C","second compound 3.16 µM, first compound 1 µM",98.4%
same,"viability, T/C","second compound 3.16 µM, first compound 3.16 µM",81.9%
same,"viability, T/C","second compound 3.16 µM, first compound 10 µM",55.1%
same,"viability, T/C",[17],119%
same,"viability, T/C",[18],102%
same,"viability, T/C","second compound 10 µM, first compound 0.316 µM",111%
same,"viability, T/C","second compound 10 µM, first compound 1 µM",92.2%
same,"viability, T/C","second compound 10 µM, first compound 3.16 µM",85.8%
same,"viability, T/C","second compound 10 µM, first compound 10 µM",62.8%
COc1cccc2c1C(=O)c1c(O)c3c(c(O)c1C2=O)CC(O)(C(=O)CO)CC3OC1CC(N)C(O)C(C)O1 (stereo unspecified),"viability, T/C",compound 0.0316 µM,59.4% and 71.1% and 60.1%
same,"viability, T/C",compound 0.1 µM,61.1% and 79% and 56.2%
same,"viability, T/C",compound 0.316 µM,46.8% and 46.4% and 36.7%
same,"viability, T/C",compound 1 µM,2.75% and 11.6% and 1.69%
same,"viability, T/C",compound 3.16 µM,0.71% and 1.11% and 0.66%
same,"viability, T/C",compound 10 µM,1% and 1.39% and 1.05%
same,IC50,curve of compound,0.241 µM and 0.29 µM and 0.153 µM
C#Cc1c(F)ccc2cc(O)cc(-c3ncc4c(N5CC6CCC(C5)N6)nc(OCC56CCCN5CC(F)C6)nc4c3F)c12 (stereo unspecified),"viability, T/C",compound 0.0316 µM,97.4% and 84.7% and 98.7%
same,"viability, T/C",compound 0.1 µM,87.7% and 85.2% and 98.1%
same,"viability, T/C",compound 0.316 µM,79.3% and 79.1% and 79.6%
same,"viability, T/C",compound 1 µM,67.5% and 74.8% and 66.9%
same,"viability, T/C",compound 3.16 µM,80.7% and 73.1% and 71.4%
same,"viability, T/C",compound 10 µM,37.6% and 42.5% and 32%
same,IC50,curve of compound,6.76 µM and 7.47 µM and 4.99 µM
CC[C@@]1(O)C(=O)OCc2c1cc1n(c2=O)Cc2cc3c(CN(C)C)c(O)ccc3nc2-1 + Nc1ccc(C#CCN(C(=O)Cc2ncc(C(F)(F)F)cc2C(F)(F)F)c2ccc(F)cc2)nn1,IC50,[1],> 0.1 µM
same,IC50,[2],> 0.1 µM
same,IC50,[3],> 0.1 µM
same,IC50,[4],> 0.1 µM
same,IC50,[5],> 0.1 µM
same,IC50,[6],> 0.1 µM
same,"viability, T/C","second compound 0.0316 µM, first compound 0.000316 µM",101%
same,"viability, T/C","second compound 0.0316 µM, first compound 0.001 µM",78.3%
same,"viability, T/C","second compound 0.0316 µM, first compound 0.00316 µM",95.8%
same,"viability, T/C","second compound 0.0316 µM, first compound 0.01 µM",87.9%
same,"viability, T/C",[7],67.5%
same,"viability, T/C",[8],56.1%
same,"viability, T/C","second compound 0.1 µM, first compound 0.000316 µM",99.4%
same,"viability, T/C","second compound 0.1 µM, first compound 0.001 µM",89.4%
same,"viability, T/C","second compound 0.1 µM, first compound 0.00316 µM",91.3%
same,"viability, T/C","second compound 0.1 µM, first compound 0.01 µM",75.2%
same,"viability, T/C",[9],59.7%
same,"viability, T/C",[10],52.4%
same,"viability, T/C","second compound 0.316 µM, first compound 0.000316 µM",86.8%
same,"viability, T/C","second compound 0.316 µM, first compound 0.001 µM",77.6%
same,"viability, T/C","second compound 0.316 µM, first compound 0.00316 µM",116%
same,"viability, T/C","second compound 0.316 µM, first compound 0.01 µM",94.8%
same,"viability, T/C",[11],54.7%
same,"viability, T/C",[12],59.2%
same,"viability, T/C","second compound 1 µM, first compound 0.000316 µM",86.9%
same,"viability, T/C","second compound 1 µM, first compound 0.001 µM",67.1%
same,"viability, T/C","second compound 1 µM, first compound 0.00316 µM",109%
same,"viability, T/C","second compound 1 µM, first compound 0.01 µM",70.7%
same,"viability, T/C",[13],63.1%
same,"viability, T/C",[14],55.9%
same,"viability, T/C","second compound 3.16 µM, first compound 0.000316 µM",87.1%
same,"viability, T/C","second compound 3.16 µM, first compound 0.001 µM",74.4%
same,"viability, T/C","second compound 3.16 µM, first compound 0.00316 µM",109%
same,"viability, T/C","second compound 3.16 µM, first compound 0.01 µM",89.4%
same,"viability, T/C",[15],57.4%
same,"viability, T/C",[16],52.6%
same,"viability, T/C","second compound 10 µM, first compound 0.000316 µM",121%
same,"viability, T/C","second compound 10 µM, first compound 0.001 µM",135%
same,"viability, T/C","second compound 10 µM, first compound 0.00316 µM",86.2%
same,"viability, T/C","second compound 10 µM, first compound 0.01 µM",72.6%
same,"viability, T/C",[17],70.5%
same,"viability, T/C",[18],53.4%
CC(=O)O[C@H]1C(=O)[C@@]2(C)[C@H]([C@H](OC(=O)c3ccccc3)[C@]3(O)C[C@H](OC(=O)[C@H](O)[C@@H](NC(=O)c4ccccc4)c4ccccc4)C(C)=C1C3(C)C)[C@]1(OC(C)=O)CO[C@@H]1C[C@@H]2O,"viability, T/C",compound 0.00949 µM,51.9% and 53.3% and 40.6%
same,"viability, T/C",compound 0.03 µM,51% and 60.1% and 33.6%
same,"viability, T/C",compound 0.0949 µM,54.7% and 51.5% and 37.1%
same,"viability, T/C",compound 0.3 µM,52.4% and 50.6% and 36.6%
same,"viability, T/C",compound 0.949 µM,43.7% and 49.6% and 35.6%
same,"viability, T/C",compound 3 µM,49.5% and 56.1% and 39%
O=C(c1cc(Cc2n[nH]c(=O)c3ccccc23)ccc1F)N1CCN(C(=O)C2CC2)CC1,"viability, T/C",compound 0.0316 µM,99.2% and 94.9% and 95.6%
same,"viability, T/C",compound 0.1 µM,83.3% and 99.5% and 98.7%
same,"viability, T/C",compound 0.316 µM,101% and 83.8% and 88.6%
same,"viability, T/C",compound 1 µM,81.2% and 111% and 91.4%
same,"viability, T/C",compound 3.16 µM,83.2% and 97.8% and 72.5%
same,"viability, T/C",compound 10 µM,60.4% and 69.9% and 69%
same,IC50,curve of compound,> 10 µM
